Patent publication US20120149080A1, “YEAST PRODUCTION CULTURE FOR THE PRODUCTION OF BUTANOL” (Butamax(TM) Advanced Biofuels LLC, priority 2010, published 2012)

Key:
Format in all cases: cell-based
[1] = system: Saccharomyces cerevisiae PNY0602; experiment: Glucose consumption rate in high cell density culture in YPD; details: about 3.9 gdcw/L
Source text: (§1) S. cerevisiae strains used were PNY0569 CEN.PK122 (MATa MAL2-8c SUC2/MATalpha MAL2-8c SUC2) and PNY0571 (CEN.PK 113-7D MATa MAL2-8c SUC2), obtained from Centraalbureau voor Schimmelcultures, Fungal and Yeast Collection (Netherlands) as well as PNY0602 and PNY0614. PNY0602 and PNY0614 were isolated from a mutagenized culture of PNY0571. PNY0571 (CEN.PK 113-7D) was subjected to 10 rounds of chemical mutagenesis with N-methyl-N′-nitro-N-nitrosoguanidine (NTG) and ethylmethane sulfonate (EMS) using standard methods (Barbour, L., M. Hanna and W. Xiao. 2006. Mutagenesis, p. 121-127. In W. Xiao (ed.), Yeast Protocols, Second Edition. Humana Press, NJ). Cells were grown overnight in 10 ml of YPD at 30° C. with shaking. The overnight culture was centrifuged, and the pellet was resuspended in 50 mM potassium phosphate buffer, pH 7.0. The cells were again centrifuged and resuspended in 10 ml of the same buffer. A portion of the resuspended cells (2.5 ml) was transferred to a plastic 15 ml screw cap centrifuge tube, and the cells were treated with NTG (10 μg/ml final concentration) or EMS (3% w/v) for 40 minutes at 30° C. without shaking. The mutagen was inactivated by addition of an equal volume of filter sterilized 10% (w/v) sodium thiosulfate. The treated cells were centrifuged and resuspended in water two times. The treatment protocol involved repeated cycles of treating yeast cells with one of the mutagens (e.g., NTG), allowing the surviving cells to grow out overnight in YPD with 1% isobutanol, and then treating the overnight culture with the other mutagen (e.g., EMS). After the fifth cycle (i.e., a total of ten treatments with mutagen), cells were screened for isobutanol tolerance. PNY0602 was isolated after prolonged (24 h) exposure to 3.0% isobutanol. PNY0614 was isolated after 5 cycles of repeated freezing and thawing of the mutagenized culture by resuspending mutagenized cells in distilled water and transferring the cells to dry-ice ethanol bath and a 37° C. water bath for 20 minutes each.
(§2) Glucose consumption rates in the presence of isobutanol in YPD were also determined when the cell concentration was about 8 O.D. (about 3.9 gdcw/L). Saccharomyces cerevisiae strains PNY0571, PNY0602 and PNY0614 were plated from a freezer vial onto YPD agar (Teknova, Hollister, Calif.; Cat. #Y1000) and incubated overnight at 30° C. Cells from the YPD plate were inoculated into a 25 ml pre-culture of YPD broth (Teknova, Hollister, Calif.; Cat. #Y5000) with an initial OD600 of 0.06 to 0.08, and this culture was grown for 7 hours in an air shaker at 30° C. An aliquot of the pre-culture was inoculated into 200 ml of YPD broth with an initial OD600 of 0.06 to 0.08, and this culture was incubated with aeration at 30° C. for approximately 17 hours. The optical density of the culture was determined, the culture was centrifuged and the cells were resuspended in fresh YPD broth to yield an OD600 of 8. At this point, an aliquot of 10 ml of the culture was used for a dry cell weight determination, which gave dry cell weight in the range of 3.89 gdcw/L.
(§3) 20 ml cultures were transferred to flasks that contained 0.0%, 0.5%, 0.75%, 1.0%, 1.25%, 1.5%, 1.75%, 2.0% and 2.5% isobutanol. Time of addition of cells was referred to as 0 hours. At various times samples (500 to 700 ul) were transferred to a tube containing an equal volume of 10% TCA. Samples were centrifuged and glucose determined in the YSI glucose analyzer (YSI 2700 Select).

[2] = system: Saccharomyces cerevisiae PNY0614; experiment: as above; details: about 3.9 gdcw/L
Source text: as §1, §2, §3

[3] = system: Issatchenkia orientalis PNY0660; experiment: Glucose utilization rate in high cell density culture in corn test medium; details: for Glucose utilization rate: 30 C., 0 h to 6 h, 2.7 gdcw/L, corn test medium
Protocol: Strain Issatchenkia orientalis PNY0660, was derived from ATCC 20381 strain that was previously referred to as Candida acidothermophilium. Strain PNY0660 was plated from a freezer vial onto YPD agar (Teknova, Hollister, Calif.; Cat. #Y1000) and incubated overnight at 30° C. Cells from the YPD plate were inoculated into a 50 ml pre-culture of YPD broth (Teknova, Hollister, Calif.; Cat. #Y5000) with an initial OD600 of 0.06 to 0.08, and this culture was grown for 5 hours in an air shaker at 30° C. An aliquot of the pre-culture was inoculated into 200 ml of YPD broth with an initial OD600 of 0.6, and this culture was incubated with aeration at 30° C. for approximately 17 hours. The optical density of the culture was determined, the culture was centrifuged, and the sugar consumption rate was determined in corn test medium. Corn test medium contained 0.2% casamino acids and 2% glucose and 100 mM MES buffer pH 5.25 and per liter contained (i) salts: ammonium sulfate 5.0 g, potassium phosphate monobasic 2.8 g, and magnesium sulfate heptahydrate 0.5 g, (ii) vitamins: biotin (D−) 0.40 mg, Ca D(+) panthotenate 8.00 mg, myo-inositol 200.00 mg, pyridoxol hydrochloride 8.00 mg, p-aminobenzoic acid 1.60 mg, riboflavin 1.60 mg, folic acid 0.02 mg, niacin 30.0 mg, and thiamine 30 mg; and (iii) trace elements: EDTA (Titriplex 1117) 99.38 mg, zinc sulphate heptahydrate 29.81 mg, manganese chloride dehydrate 5.57 mg, cobalt(II)chloride hexahydrate 1.99 mg, copper(II)sulphate pentahydrate 1.99 mg, Di-sodium molybdenum dehydrate 2.65 mg, calcium chloride dehydrate 29.81 mg, iron sulphate heptahydrate 19.88 mg, and boric acid.
20 ml cultures (2.7 gdcw/L) in corn test medium were transferred to flasks that contained 0.0%, 0.5%, 1.0%, 1.5%, 1.75% or 2.0% isobutanol. Time of addition of cells was referred to as 0 hours. At various times, samples (1.5 ml) were withdrawn and centrifuged at 10,000 rpm for 2 minutes in a microfuge (Sorvall Biofuge pico). The supernatant was filtered through a 0.2 μm filter (Pall Life Sciences, Port Washington, N.Y.) Pall GHP Acrodisc 13 mm Syringe Filter with 0.2 μm GHP Membrane), the filtrate was diluted ten-fold, and the glucose concentration was determined using a YSI Glucose Analyzer (YSI 2700 Select; YSI, Inc., Yellow Springs, Ohio).

CC(C)CO [Isobutanol, isobutanol]
Glucose consumed per gdcw per hour ([1]; PNY0602, 0.5% isobutanol): 3.0 per gdcw per hour
Glucose consumed per gdcw per hour ([1]; PNY0602, 0.75% isobutanol): 2.9 per gdcw per hour
Glucose consumed per gdcw per hour ([1]; PNY0602, 1% isobutanol): 2.7 per gdcw per hour
Glucose consumed per gdcw per hour ([1]; PNY0602, 1.5% isobutanol): 1.5 per gdcw per hour
Glucose consumed per gdcw per hour ([1]; PNY0602, 1.75% isobutanol): 1.1 per gdcw per hour
Glucose consumed per gdcw per hour ([1]; PNY0602, 2% isobutanol): 0.9 per gdcw per hour
Glucose consumed per gdcw per hour ([1]; PNY0602, 2.5% isobutanol): 0.5 per gdcw per hour
Glucose consumed per gdcw per hour ([2]; PNY0614, 0.5% isobutanol): 2.9 per gdcw per hour
Glucose consumed per gdcw per hour ([2]; PNY0614, 0.75% isobutanol): 2.8 per gdcw per hour
Glucose consumed per gdcw per hour ([2]; PNY0614, 1% isobutanol): 2.6 per gdcw per hour
Glucose consumed per gdcw per hour ([2]; PNY0614, 1.5% isobutanol): 1.4 per gdcw per hour
Glucose consumed per gdcw per hour ([2]; PNY0614, 1.75% isobutanol): 1.0 per gdcw per hour
Glucose consumed per gdcw per hour ([2]; PNY0614, 2% isobutanol): 0.8 per gdcw per hour
Glucose consumed per gdcw per hour ([2]; PNY0614, 2.5% isobutanol): 0.4 per gdcw per hour
Glucose utilization rate ([3]; 5.0 g/L isobutanol): 2.4 g/gdcw/h
Glucose utilization rate ([3]; 10.0 g/L isobutanol): 2.4 g/gdcw/h
Glucose utilization rate ([3]; 15.0 g/L isobutanol): 1.4 g/gdcw/h
Glucose utilization rate ([3]; 17.5 g/L isobutanol): 0.9 g/gdcw/h
Glucose utilization rate ([3]; 20.0 g/L isobutanol): 0.7 g/gdcw/h
sugar consumption rate ([3]; I. orientalis strains, 20 g/l of isobutanol): 0.7 g/gdw/h
